# In paper PMC9140920 (International Journal of Molecular Sciences, 2022):
# “Also recorded” adds a separate entry of the source. Where two headings read alike, the source gives them in different places.
# How the values were obtained:
# [1] = system: TM4 mouse Sertoli cells; test: Cell growth and viability (MTT), dose-response of the drugs alone; format: cell-based; settings: for IC20: read-out: IC20 ± SE; for IC80: read-out: IC80 ± SE
# Experimental: Cells were maintained in standard conditions for 24 h before treatments. […] All azoles were dissolved in DMSO. In an effort to avoid a possible experimental artifact with vehicles, experiments were performed including control groups in which the effect of the drug vehicle alone was tested (vehicle control, vCTR). […] For experiments with N-acetylcysteine (NAC), 24 h after seeding cells were pre-treated for 1 h with the ROS inhibitor (1 mM) and then maintained in co-treatment with azoles for 48 h.
# TM4 cells were seeded at a density of 1 × 10^4/cm^2, and cultures incubated at standard conditions in the presence or the absence of azoles to reach final concentrations ranging from 0.078 µM up to 320 µM in culture medium. Cell growth and viability were assessed at 24 and 48 h by Trypan-blue exclusion assay and MTT (3-(4,5-dimethylthiazol-2-yl)-2,5-diphenyl-2H-tetrazolium-bromide) colorimetric method (Sigma-Aldrich, St. Louis, MO, USA), quantifying the metabolic efficiency of living cells.
# The Interaction Index (II) was calculated, as previously described, by modifying the Chou and Talalay equation [78]. Specifically, Chou and Talalay’s median-effect method estimates the IC50 and the sigmodicity coefficient m values using linear regression of the linearised dose-response curve.
# For a two-drug assay, II is the summation of the ratios of the doses (Dn) of the drugs in combination, and the concentrations of the two drugs alone (IDx,n), to obtain a fraction x of cells affected by drug combinations (Fa). IDx,n is estimated by the following equation:(1) IDx,n=IC50(Fa/1−Fa)^1/mn
# [2] = system: TM4 cells; test: Annexin V-FITC / propidium iodide assay of apoptosis and necrosis; format: cell-based, mouse; settings: for apoptosis induction / cell death: 48 h, annexin V/PI, vs vCTR
# Experimental: Cells were maintained in standard conditions for 24 h before treatments. […] All azoles were dissolved in DMSO. In an effort to avoid a possible experimental artifact with vehicles, experiments were performed including control groups in which the effect of the drug vehicle alone was tested (vehicle control, vCTR). In these experimental conditions, we excluded any negative effects of DMSO that is biocompatible with no biological effect per se. For experiments with N-acetylcysteine (NAC), 24 h after seeding cells were pre-treated for 1 h with the ROS inhibitor (1 mM) and then maintained in co-treatment with azoles for 48 h.
# Treated and control cells (vCTR) (1 × 10^6) were collected; after washing in ice-cold PBS, samples were resuspended in 1 mL of binding buffer (10 mM HEPES, 140 mM NaCl, and 2.5 mM CaCl2, at pH 7.4) containing 10 µg/mL Annexin V-FITC and 1 µg/mL PI. After staining (1 h incubation at room temperature), cells were then washed and subsequently analysed using an FACS Calibur instrument (BD Instruments Inc., San José, CA, USA). Cells treated with 25 µM Etoposide (Eto) for 24 h were used as a positive control for apoptosis induction. Data from 10,000 events per sample were collected and analysed using an FACS Calibur instrument (BD Instruments Inc., San José, CA, USA ) equipped with cell cycle analysis software (Modfit LT for Mac V3.0) in order to calculate the percentages of apoptotic and necrotic cells.
# [3] = system: C-PARP1 in TM4 cells; test: Western blot of cleaved PARP1 (C-PARP1); format: cell-based, mouse; settings: 48 h exposure, ratio of cleaved PARP1 to total PARP1, vs vCTR
# Experimental: The protein extracts were run on a 10% SDS-PAGE and transferred onto PVDF filters and maintained at room temperature (RT) for 2 h in 5% non-fat dry milk diluted in TBST (containing 0.1% Tween-20). After washing, membranes were incubated O/N at 4 °C with the primary antibody anti-PARP1 (Cell Signaling, Danvers, MA, USA) diluted to 1:1000 in 1% non-fat dry milk in TBST. After washing, PVDF filters were incubated for 1 h at RT with the anti-rabbit (1:5000) HRP-conjugated secondary antibody (Immunological Sciences, by Società Italiana Chimici, Rome, Italy). ECL West Pico Plus chemiluminescent substrate was used to detect signals using a ChemiDoc XRSplus imaging system (Bio-Rad Laboratories, Hercules, CA, USA). The optical densities of blot bands were quantified using ImageJ software (US National Institutes of Health, Bethesda, MD, USA); the graph values represent the ratios of cleaved PARP1 to total PARP1. ß-actin was used as loading control.
# [4] = system: ROS production in TM4 cells; test: Intracellular ROS detection (DCFH-DA fluorescence); format: cell-based, mouse; settings: 3 h of incubation, vs vCTR
# Experimental: The intracellular ROS production was detected by using 2′,7′-dichlorofluorescein diacetate (DCFH-DA) (Molecular Probes, Eugene, OR, USA), as previously reported. In brief, after 30 min and 3 h of treatments, samples were incubated with 1 µM DCFH-DA at 37 °C for 30 min. Subsequently, cells were collected and twice washed in ice-cold PBS; samples were then analysed using flow cytometry to detect the presence of intracellular ROS at the wavelengths of 502 and 524 nm, for the excitation and the emission, respectively; the fluorescence intensity was detected with a Perkin Elmer LS-50B spectrofluorometer. Cells treated with 500 µM tert-butyl hydroperoxide (t-BHP) for 1.5 h were used as a positive control for ROS generation.
# [5] = system: ΔΨm in TM4 cells; test: Mitochondrial membrane potential (ΔΨm) by JC-1 flow cytometry; format: cell-based, mouse; settings: 3 h of incubation, JC-1, vs vCTR
# Experimental: Variations of the ΔΨm in samples exposed to azoles for 3 h were assessed using the lipophilic cation dye JC-1, as previously reported. Cells (1 × 10^6 per sample) were stained for 30 min at 37 °C in a humidified atmosphere, with 3 µM JC-1 (Molecular Probes, Eugene, OR, USA) and collected; after washing in PBS, cells were analysed using flow cytometry. To assure a positive control for the abatement of the ΔΨm, the cells were cultured in the presence of […] rotenone (Sigma-Aldrich, St. Louis, MO, USA) for 1 h at standard conditions, and then incubated with the potentiometric dye as described above. Experiments were performed in triplicate and analysed by an FACS Calibur instrument (BD Instruments Inc., San José, CA, USA). The fluorescent signals from JC-1 monomers or aggregates were detected through the FL-1 (525 ± 5 nm) and FL-2 bandpass filters (575 ± 5 nm), respectively; the forward and side scatter channels gated a minimum of 1 × 10^4 cells on the major population of normal-sized cells. ΔΨm data assessment was performed by the Cell Quest software (BD Instruments Inc., San José, CA, USA).
# [6] = cited from earlier work
# [7] = cited from earlier work; remark: listed apart in the source
# [8] = system: antioxidant enzymes in TM4 cells; test: Antioxidant enzymatic activity assays (SOD, CAT, GPx, GR, GST); format: cell-based, mouse
# Experimental: The antioxidant enzymatic activities were performed spectrophotometrically, as previously described. Briefly, after 3 h of incubation with azoles, cells were washed in ice-cold PBS, resuspended in buffer containing 50 mM Tris–HCl (pH 7.4), 1% (v/v) Triton X-100, 1 mM EDTA, and then disrupted by three freeze-thawing cycles. After centrifugation (17,000 g, 10 min, 4 °C), the supernatants were collected for protein quantification and subsequently analysed.
# The glutathione reductase (GR) activity was evaluated spectrophotometrically by measuring NADPH oxidation (340 nm at 25 °C). The reaction mix contained 50 mM potassium phosphate buffer (pH 7.0), 1 mM GSSG, 0.2 mM NADPH, 1 mM EDTA, and the adequate protein amount.
# Total glutathione peroxidase (GPx) activity (se-dependent and se-independent) of each cell extract was assayed spectrophotometrically by following the NADPH oxidation (340 nm). The assay mixture contained 50 mM potassium phosphate buffer (pH 7.0), 1 mM GSH, 0.01 U/mL GSH reductase, 1 mM EDTA, 0.2 mM NADPH, 70 µM t-BHP, and the adequate amount of the protein extract. The glutathione transferase (GST) activity was evaluated by determining the GSH conjugation rate to 1-chloro-2,4- dinitrobenzene at 340 nm. The reaction mixture was prepared with 0.1 M potassium phosphate buffer (pH 6.5), 2 mM GSH, 1 mM 1-chloro-2,4-dinitrobenzene, and a determined amount of the supernatants.
# The catalase (CAT) activity was evaluated, by monitoring at 240 nm its 10-millimolar decomposition. One unit was defined as 1 µmol of H2O2 reduced/min at 25 °C.
# The superoxide dismutase (SOD) activity was determined using a colourimetric activity assay (ThermoFisher Scientific—Life Technologies Corp, Carlsband, CA, USA). The assay was conducted according to manufacturer’s instructions; briefly, it measures all types of SOD activity (including Cu/Zn, Mn, and FeSOD). Samples were resuspended in specific coloured diluent and added to a 96-well microplate. […] SOD-specific activity was expressed as U/mg protein, while the specific activity of all the other enzymes analysed was expressed as nmol/min/mg protein.
# [9] = system: GSH in TM4 cells; test: GSH and GSSG intracellular content (colourimetric assay); format: cell-based, mouse; settings: 3 h of incubation, vs vCTR
# Experimental: GSH and GSSG intracellular contents were detected by using a colourimetric assay (ThermoFisher Scientific—Life Technologies Corp, Carlsband, CA, USA). The analyses were performed according to the manufacturer’s instructions after treatments with azoles at 3 h of incubation; in brief, cell lysates were prepared in ice-cold 5% 5-sulfo-salicylic acid dehydrate (Sigma-Aldrich, St. Louis, MO, USA), and subsequently resuspended in the supplied diluent before adding them into a 96-well microplate. After promptly adding substrate, the reaction with the free thiol group of GSH initiates, producing a highly coloured product. The relative absorbance was detected at 405 nm. Assays were performed at least in triplicate for the GSH and the GSSG content detection. To determine oxidised glutathione content, 2-vinylpyridine (2-VP) (Sigma-Aldrich, St. Louis, MO, USA) was added to block free GSH or other thiols contained in each sample; the specific concentration of the GSSG was determined by performing a 2-VP-treated samples standard curve.
# [10] = set-up: method as in PMID 42148393; settings: cattle; cited from earlier work
# [11] = Mus musculus, TM4 cells, 48 h of exposure, drug alone, 20% fraction of cells affected (Fa), non-linear fitting
# [12] = Mus musculus, TM4 cells, 48 h of exposure, drug alone, 80% fraction of cells affected (Fa), non-linear fitting
structure (smiles),measurement,setting,value
"OC(Cn1cncn1)(Cn1cncn1)c1ccc(F)cc1F [FCZ, fluconazole]",IC20 ± SE,"[1]; TM4 cells, 48 h of exposure, drug alone, 20% fraction of cells affected (Fa), non-linear fitting",Not detectable
same,IC50 ± SE,"[1]; TM4 cells, 48 h of exposure, drug alone, 50% fraction of cells affected (Fa), non-linear fitting",Not detectable
same,IC80 ± SE,"[1]; TM4 cells, 48 h of exposure, drug alone, 80% fraction of cells affected (Fa), non-linear fitting",Not detectable
same,cytotoxic effects,"[1]; TM4 cells, up to 320 µM, individually or in combination",no cytotoxic effects
"CC(=O)N1CCN(c2ccc(OCC3COC(Cn4ccnc4)(c4ccc(Cl)cc4Cl)O3)cc2)CC1 (stereo not drawn) [KCZ, ketoconazole]",IC50,"[1]; Mus musculus, TM4, 48 h, TM4 cells, 48 h of exposure, drug alone, 50% fraction of cells affected (Fa), non-linear fitting, read-out: IC50 ± SE",~73 µM
same,IC20,[1]; [11],18.3 ± 2.4 µM
same,IC80,[1]; [12],293 ± 38.1 µM
same,IC50,"[1]; TM4 cells, 48 h of exposure, drug alone, 50% fraction of cells affected (Fa), non-linear fitting, read-out: IC50 ± SE",73.2 ± 9.5 µM
same,apoptosis induction / cell death,[2],a level of apoptosis-induction occurred
same,C-PARP1 protein levels,[3],significantly increased
same,increase in ROS production,[4],~ 1.7 fold
same,mean intensity of red-orange fluorescence (MFI) of ΔΨm high population,[5],increases in MFI
same,plasma concentration,"[6]; human subjects, after treatment with 400 mg/day therapy",24.89 µM
same,systemic absorption after topical administration,"[6]; human, topical KCZ",little systemic absorption
"Clc1ccc(COC(Cn2ccnc2)c2ccc(Cl)cc2Cl)c(Cl)c1 (stereo not drawn) [MCZ, miconazole]",IC20,[1]; [11],8.6 ± 0.6 µM
same,IC80,[1]; [12],138 ± 9.8 µM
same,apoptosis induction / cell death,[2],a level of apoptosis-induction occurred
same,C-PARP1 protein levels,[3],significantly increased
same,increase in ROS production,[4],~ 1.4 fold
same,log Kow (log octanol-water partition coefficient),[7],6.35
"CC(=O)N[C@@H](CS)C(=O)O [NAC, N-acetylcysteine]",effect on KCZ- and PCZ/KCZ-induced apoptosis and necrosis,[2]; co-incubation for 48 h with 1 mM NAC,significantly reduced
"CCCN(CCOc1c(Cl)cc(Cl)cc1Cl)C(=O)n1ccnc1 [PCZ, prochloraz]",IC20,"[1]; Mus musculus, TM4, 48 h",18.5 ± 3.9 µM
same,IC50,"[1]; Mus musculus, TM4, 48 h, read-out: IC50 ± SE, TM4 cells, 48 h of exposure, drug alone, 50% fraction of cells affected (Fa), non-linear fitting",~73 µM
same,IC80,"[1]; Mus musculus, TM4, 48 h",295 ± 62.3 µM
same,IC50,"[1]; read-out: IC50 ± SE, TM4 cells, 48 h of exposure, drug alone, 50% fraction of cells affected (Fa), non-linear fitting",73.8 ± 15.6 µM
same,apoptosis induction / cell death,[2],no significant differences; also recorded: not able to induce cell death
same,increase in ROS production,[4],~ 1.7 fold
same,mean intensity of red-orange fluorescence (MFI) of ΔΨm high population,[5],increases in MFI
same,SOD/(GPx + CAT) ratio,"[8]; 3 h of exposure, vCTR = 0.46 ± 0.067",0.0972 ± 0.019
same,GST activity,"[8]; 3 h of incubation, vs controls",substantially reduced
same,GR/(GPx + GST) ratio,"[8]; 3 h of incubation, vs vCTR",positive and significant shift
same,intracellular GSH content,[9],only a slight decrease
same,residues in edible tissues (moderate bioaccumulation),[10],≥ 0.01 mg/kg
